# Assay results reported in US6673549B1, “Genes expressed in C3A liver cell cultures treated with steroids” (Incyte Corporation, priority 2000, dated 2004).
# System: human C3A liver cells
# Assay: Microarray differential gene expression in human C3A liver cell cultures treated with steroids
# Format: cell-based
# Excerpt: Incyte clones represent template sequences derived from the LWESEQ GOLD assembled human sequence database (Incyte Genomics). In cases where more than one clone was available for a particular template, the 5′-most clone in the template was used on the microarray. The HUMAN GENOME GEM series 1-4 microarrays (Incyte Genomics) contain 28,626 array elements which represent 10,068 annotated clusters and 18,558 unannotated clusters. For the UNIGEM series microarrays (Incyte Genomics), Incyte clones were mapped to non-redundant Unigene clusters (Unigene database (build 46), NCBI; Shuler (1997) J Mol Med 75:694-698), and the 5′ clone with the strongest BLAST alignment (at least 90% identity and 100 bp overlap) was chosen, verified, and used in the construction of the microarray. The UNIGEM V microarray (Incyte Genomics) contains 7075 array elements which represent 4610 annotated genes and 2,184 unannotated clusters.
# To construct microarrays, cDNAs were amplified from bacterial cells using primers complementary to vector sequences flanking the cDNA insert. […] Amplified cDNAs were then purified using […]-400 columns (APB). Purified cDNAs were immobilized on polymer-coated glass slides. Glass microscope slides (Corning, Corning N.Y.) were cleaned by ultrasound in 0.1% SDS and acetone, with extensive distilled water washes between and after treatments. Glass slides were etched in 4% hydrofluoric acid (VWR Scientific Products, West Chester Pa.), washed thoroughly in distilled water, and coated with 0.05% aminopropyl silane (Sigma Aldrich) in 95% ethanol. Coated slides were cured in a 110° C. oven. cDNAs were applied to the coated glass substrate using a procedure described in U.S. Pat. No. 5,807,522. One microliter of the cDNA at an average concentration of 100 ng/μl was loaded into the open capillary printing element by a high-speed robotic apparatus which then deposited about 5 nl of cDNA per slide.
# Microarrays were UV-crosslinked using a […] UV-crosslinker (Stratagene), and then washed at room temperature once in 0.2% SDS and three times in distilled water. Non-specific binding sites were blocked by incubation of microarrays in 0.2% casein in phosphate buffered saline (Tropix, Bedford Mich.) for 30 minutes at 60° C. followed by washes in 0.2% SDS and distilled water as before.
# In all cases, mRNA from untreated early confluent C3A cells were prepared in parallel as described below.
# Cells were harvested and lysed in 1 ml of TRIZOL reagent (5×10^6 cells/ml; Life Technologies). Lysates were vortexed thoroughly, incubated at room temperature for 2-3 minutes, and extracted with 0.5 ml chloroform. The extract was mixed, incubated at room temperature for 5 minutes, and centrifuged at 15,000 rpm for 15 minutes at 4° C. The aqueous layer was collected, and an equal volume of isopropanol was added. Samples were mixed, incubated at room temperature for 10 minutes, and centrifuged at 15,000 rpm for 20 minutes at 4° C. The supernatant was removed, and the RNA pellet was washed with 1 ml of 70% ethanol, centrifuged at 15,000 rpm at 4° C., and resuspended in RNAse-free water. The concentration of the RNA was determined by measuring the optical density at 260 nm.
# Poly(A) RNA was prepared using an OLIGOTEX mRNA kit (Qiagen) with the following modifications: OLIGOTEX beads were washed in tubes instead of on spin columns, resuspended in elution buffer, and then loaded onto spin columns to recover mRNA. To obtain maximum yield, the mRNA was eluted twice.
# Each poly(A) RNA sample was reverse transcribed using MMLV reverse-transcriptase, 0.05 pg/μl oligo-d(T) primer (21mer), 1× first strand buffer, 0.03 units/ul RNAse inhibitor, 500 uM dATP, 500 uM dGTP, 500 uM dTTP, 40 uM dCTP, and 40 uM either dCTP-Cy3 or dCTP-Cy5 (APB).
structure (smiles),measurement,setting,value
C[C@@H]1C[C@H]2[C@@H]3CCC4=CC(=O)C=C[C@]4(C)[C@@]3(F)[C@@H](O)C[C@]2(C)[C@@]1(O)C(=O)CO [dexamethasone],Ave DE [log2] (C3A treated with steroid),Clone ID 167081,−1.10 log2
same,Ave DE [log2] (C3A treated with steroid),Clone ID 220378,0.39 log2
same,Ave DE [log2] (C3A treated with steroid),Clone ID 380006,−0.98 log2
same,Ave DE [log2] (C3A treated with steroid),Clone ID 419492,1.08 log2
same,Ave DE [log2] (C3A treated with steroid),Clone ID 494905,0.75 log2
same,Ave DE [log2] (C3A treated with steroid),Clone ID 508943,−1.26 log2
same,Ave DE [log2] (C3A treated with steroid),Clone ID 869702,0.55 log2
same,Ave DE [log2] (C3A treated with steroid),Clone ID 1259841,0.84 log2
same,Ave DE [log2] (C3A treated with steroid),Clone ID 1275616,0.97 log2
same,Ave DE [log2] (C3A treated with steroid),Clone ID 1323616,0.89 log2
same,Ave DE [log2] (C3A treated with steroid),Clone ID 1500810,−0.70 log2
same,Ave DE [log2] (C3A treated with steroid),Clone ID 1501410,−1.16 log2
same,Ave DE [log2] (C3A treated with steroid),Clone ID 1573840,0.86 log2
same,Ave DE [log2] (C3A treated with steroid),Clone ID 1823946,−1.20 log2
same,Ave DE [log2] (C3A treated with steroid),Clone ID 1857664,−0.71 log2
same,Ave DE [log2] (C3A treated with steroid),Clone ID 1876829,−0.94 log2
same,Ave DE [log2] (C3A treated with steroid),Clone ID 1930847,−0.67 log2
same,Ave DE [log2] (C3A treated with steroid),Clone ID 1946155,0.93 log2
same,Ave DE [log2] (C3A treated with steroid),Clone ID 2025128,0.90 log2
same,Ave DE [log2] (C3A treated with steroid),Clone ID 2086783,−1.18 log2
same,Ave DE [log2] (C3A treated with steroid),Clone ID 2088104,−1.20 log2
same,Ave DE [log2] (C3A treated with steroid),Clone ID 2095329,−1.37 log2
same,Ave DE [log2] (C3A treated with steroid),Clone ID 2173002,0.75 log2
same,Ave DE [log2] (C3A treated with steroid),Clone ID 2253102,−1.20 log2
same,Ave DE [log2] (C3A treated with steroid),Clone ID 2269058,−1.15 log2
same,Ave DE [log2] (C3A treated with steroid),Clone ID 2285181,−1.27 log2
same,Ave DE [log2] (C3A treated with steroid),Clone ID 2285521,−1.22 log2
same,Ave DE [log2] (C3A treated with steroid),Clone ID 2287703,−1.24 log2
same,Ave DE [log2] (C3A treated with steroid),Clone ID 2287724,−1.16 log2
same,Ave DE [log2] (C3A treated with steroid),Clone ID 2293496,−0.82 log2
same,Ave DE [log2] (C3A treated with steroid),Clone ID 2294968,−0.94 log2
same,Ave DE [log2] (C3A treated with steroid),Clone ID 2655279,−1.21 log2
same,Ave DE [log2] (C3A treated with steroid),Clone ID 2698777,−1.48 log2
same,Ave DE [log2] (C3A treated with steroid),Clone ID 2703282,−0.86 log2
same,Ave DE [log2] (C3A treated with steroid),Clone ID 2947188,−0.98 log2
same,Ave DE [log2] (C3A treated with steroid),Clone ID 3057272,0.98 log2
same,Ave DE [log2] (C3A treated with steroid),Clone ID 3115505,−1.10 log2
same,Ave DE [log2] (C3A treated with steroid),Clone ID 3139631,−0.82 log2
same,Ave DE [log2] (C3A treated with steroid),Clone ID 3973887,−1.06 log2
same,Ave DE [log2] (C3A treated with steroid),Clone ID 4089291,−0.77 log2
same,Ave DE [log2] (C3A treated with steroid),Clone ID 4284270,−0.88 log2
same,Ave DE [log2] (C3A treated with steroid),Clone ID 4377432,0.87 log2
same,Ave DE [log2] (C3A treated with steroid),Clone ID 4884214,−0.77 log2
same,Ave DE [log2] (C3A treated with steroid),Clone ID 5091002,−1.42 log2
same,Ave DE [log2] (C3A treated with steroid),Clone ID 5206821,0.17 log2
same,Ave DE [log2] (C3A treated with steroid),Clone ID 5426158,−1.03 log2
C[C@@H]1C[C@H]2[C@@H]3CCC4=CC(=O)C=C[C@]4(C)[C@@]3(F)[C@@H](O)C[C@]2(C)[C@@]1(O)C(=O)CO [dexomethasone],Ave DE [log2] (C3A treated with steroid),Clone ID 2947188,−0.98 log2
C#C[C@]1(O)CC[C@H]2[C@@H]3CCC4=Cc5oncc5C[C@]4(C)[C@H]3CC[C@@]21C [donozol],Ave DE [log2] (C3A treated with steroid),Clone ID 2407620,−0.26 log2
same,Ave DE [log2] (C3A treated with steroid),Clone ID 3474091,−0.29 log2
C[C@]12C=CC(=O)C=C1CC[C@@H]1[C@@H]2C(=O)C[C@@]2(C)[C@H]1CC[C@]2(O)C(=O)CO [prednisone],Ave DE [log2] (C3A treated with steroid),Clone ID 998615,0.91 log2
same,Ave DE [log2] (C3A treated with steroid),Clone ID 1329625,0.42 log2
same,Ave DE [log2] (C3A treated with steroid),Clone ID 1401312,−0.82 log2
same,Ave DE [log2] (C3A treated with steroid),Clone ID 1496011,0.51 log2
same,Ave DE [log2] (C3A treated with steroid),Clone ID 1611629,0.94 log2
same,Ave DE [log2] (C3A treated with steroid),Clone ID 1679595,0.99 log2
same,Ave DE [log2] (C3A treated with steroid),Clone ID 1716458,1.03 log2
same,Ave DE [log2] (C3A treated with steroid),Clone ID 1740179,0.86 log2
same,Ave DE [log2] (C3A treated with steroid),Clone ID 1946155,0.92 log2
same,Ave DE [log2] (C3A treated with steroid),Clone ID 1951845,0.79 log2
same,Ave DE [log2] (C3A treated with steroid),Clone ID 2086783,−1.13 log2
same,Ave DE [log2] (C3A treated with steroid),Clone ID 2088104,−1.15 log2
same,Ave DE [log2] (C3A treated with steroid),Clone ID 2095329,−1.21 log2
same,Ave DE [log2] (C3A treated with steroid),Clone ID 2227273,1.01 log2
same,Ave DE [log2] (C3A treated with steroid),Clone ID 2252884,−1.03 log2
same,Ave DE [log2] (C3A treated with steroid),Clone ID 2253102,−1.13 log2
same,Ave DE [log2] (C3A treated with steroid),Clone ID 2269058,−1.06 log2
same,Ave DE [log2] (C3A treated with steroid),Clone ID 2285521,−1.09 log2
same,Ave DE [log2] (C3A treated with steroid),Clone ID 2287703,−1.07 log2
same,Ave DE [log2] (C3A treated with steroid),Clone ID 2430165,0.23 log2
same,Ave DE [log2] (C3A treated with steroid),Clone ID 2607834,0.29 log2
same,Ave DE [log2] (C3A treated with steroid),Clone ID 2698777,−1.25 log2
same,Ave DE [log2] (C3A treated with steroid),Clone ID 2734007,0.88 log2
same,Ave DE [log2] (C3A treated with steroid),Clone ID 2908212,0.42 log2
same,Ave DE [log2] (C3A treated with steroid),Clone ID 3960194,1.01 log2
same,Ave DE [log2] (C3A treated with steroid),Clone ID 4252872,0.77 log2
same,Ave DE [log2] (C3A treated with steroid),Clone ID 4543123,1.27 log2
same,Ave DE [log2] (C3A treated with steroid),Clone ID 4630674,0.86 log2
same,Ave DE [log2] (C3A treated with steroid),Clone ID 4894508,−1.03 log2
same,Ave DE [log2] (C3A treated with steroid),Clone ID 5102951,0.85 log2
same,Ave DE [log2] (C3A treated with steroid),Clone ID 5326983,0.50 log2
same,Ave DE [log2] (C3A treated with steroid),Clone ID 5543385,1.00 log2
CC(=O)[C@H]1CC[C@H]2[C@@H]3CCC4=CC(=O)CC[C@]4(C)[C@H]3CC[C@]12C [progesterone],Ave DE [log2] (C3A treated with steroid),Clone ID 167081,−1.12 log2
same,Ave DE [log2] (C3A treated with steroid),Clone ID 1323327,0.83 log2
same,Ave DE [log2] (C3A treated with steroid),Clone ID 1600180,1.06 log2
same,Ave DE [log2] (C3A treated with steroid),Clone ID 1816768,0.28 log2
same,Ave DE [log2] (C3A treated with steroid),Clone ID 2655279,−1.03 log2
same,Ave DE [log2] (C3A treated with steroid),Clone ID 2753065,0.78 log2
same,Ave DE [log2] (C3A treated with steroid),Clone ID 3408804,−1.16 log2
same,Ave DE [log2] (C3A treated with steroid),Clone ID 3528232,0.99 log2
same,Ave DE [log2] (C3A treated with steroid),Clone ID 3876612,0.26 log2
